Results reported in patent US20260217701A1, “SELECTIVE BET INHIBITORS AND USES THEREOF” (Tay Therapeutics Limited, priority 2022, published 2026).
Values joined by “and” are separate entries in the source; they are usually repeats but may differ in a detail not shown here. Equal values may be shown once.

Test: CIA study: animal body weight
Details: for Average animal body weight / Average animal body weight percent change: CIA; for Animal body weight percent change (%): individual animals

Cn1cc(-c2ccccc2)c(-c2cn(C)c(=O)c3[nH]c(-c4cnn(C(F)(F)F)c4)cc23)cc1=O [Compound A, 6-methyl-4-(1-methyl-2-oxo-5-phenyl-1,2-dihydropyridin-4-yl)-2-(1-(trifluoromethyl)-1H-pyrazol-4-yl)-1,6-dihydro-7H-pyrrolo[2,3-c]pyridin-7-one]
Average animal body weight (Day 9, 10 mg/kg): 163 | Average animal body weight percent change (Day 9, 10 mg/kg): 0.36% | Animal body weight percent change (%) (Day 9, Group 5 (CIA + Compound A 1 mg/kg), 1 mg/kg): 9.09% and −4.88% and 8.02% and 6.58% and 2.37% and 1.80% and 3.68% | Animal body weight percent change (%) (Day 9, Group 6 (CIA + Compound A 3 mg/kg), 3 mg/kg): −3.57% and 0.00% (2×) and 1.71% and 1.20% and 4.19% and 8.28% and 2.56% | Average animal body weight (Day 10, 1 mg/kg): 170 | Average animal body weight percent change (Day 10, 1 mg/kg): 4.20% | Average animal body weight (Day 10, 3 mg/kg): 168 | Average animal body weight percent change (Day 10, 3 mg/kg): 1.65% | Average animal body weight (Day 10, 10 mg/kg): 164 | Average animal body weight percent change (Day 10, 10 mg/kg): 0.89% | Animal body weight percent change (%) (Day 10, Group 5 (CIA + Compound A 1 mg/kg), 1 mg/kg): 7.88% and −5.49% and 9.88% and 9.21% and 0.59% and 5.39% and 1.84% | Animal body weight percent change (%) (Day 10, Group 6 (CIA + Compound A 3 mg/kg), 3 mg/kg): −3.57% and 0.58% and 1.14% and 1.80% and 0.60% and 2.45% and 6.37% | Average animal body weight (Day 11, 1 mg/kg): 170 | Average animal body weight percent change (Day 11, 1 mg/kg): 4.25% | Average animal body weight (Day 11, 3 mg/kg): 169 | Average animal body weight percent change (Day 11, 3 mg/kg): 1.92% | Average animal body weight (Day 11, 10 mg/kg): 165 | Average animal body weight percent change (Day 11, 10 mg/kg): 1.44% | Animal body weight percent change (%) (Day 11, Group 5 (CIA + Compound A 1 mg/kg), 1 mg/kg): 9.09% and −4.27% and 9.88% and 6.58% and 0.59% and 4.79% and 2.45% | Animal body weight percent change (%) (Day 11, Group 6 (CIA + Compound A 3 mg/kg), 3 mg/kg): −4.76% and 0.58% and 1.71% and 2.99% and −4.19% and 3.68% and 9.55% | Average animal body weight (Day 12, 1 mg/kg): 171 | Average animal body weight percent change (Day 12, 1 mg/kg): 4.85% | Average animal body weight (Day 12, 3 mg/kg): 167 | Average animal body weight percent change (Day 12, 3 mg/kg): 0.97% | Average animal body weight (Day 12, 10 mg/kg): 164 | Average animal body weight percent change (Day 12, 10 mg/kg): 1.36% | Animal body weight percent change (%) (Day 12, Group 5 (CIA + Compound A 1 mg/kg), 1 mg/kg): 10.30% and −3.66% and 8.64% and 6.58% and 2.96% and 5.99% and 1.23% | Animal body weight percent change (%) (Day 12, Group 6 (CIA + Compound A 3 mg/kg), 3 mg/kg): −5.95% and 2.92% and 2.86% and 0.00% and −5.39% and 3.68% and 9.55% | Average animal body weight (Day 13, 1 mg/kg): 169 | Average animal body weight percent change (Day 13, 1 mg/kg): 3.78% | Average animal body weight (Day 13, 3 mg/kg): 167 | Average animal body weight percent change (Day 13, 3 mg/kg): 0.88% | Average animal body weight (Day 13, 10 mg/kg): 163 | Average animal body weight percent change (Day 13, 10 mg/kg): 0.66% | Animal body weight percent change (%) (Day 13, Group 5 (CIA + Compound A 1 mg/kg), 1 mg/kg): 9.09% and −3.66% and 10.49% and 5.26% and 2.96% and 2.99% and 1.23% | Animal body weight percent change (%) (Day 13, Group 6 (CIA + Compound A 3 mg/kg), 3 mg/kg): −3.57% and 2.34% and −5.14% and 3.59% and −5.99% and 3.07% and 8.92% | Average animal body weight (Day 14, 1 mg/kg): 170 | Average animal body weight percent change (Day 14, 1 mg/kg): 3.90% | Average animal body weight (Day 14, 3 mg/kg): 167 | Average animal body weight percent change (Day 14, 3 mg/kg): 0.99% | Average animal body weight (Day 14, 10 mg/kg): 162 | Average animal body weight percent change (Day 14, 10 mg/kg): 0.03% | Animal body weight percent change (%) (Day 14, Group 5 (CIA + Compound A 1 mg/kg), 1 mg/kg): 7.88% and −3.05% and 10.49% and 1.97% and 3.55% and 1.80% and 3.07% | Animal body weight percent change (%) (Day 14, Group 6 (CIA + Compound A 3 mg/kg), 3 mg/kg): −2.98% and 3.51% and −2.86% and 4.79% and −6.59% and 2.45% and 8.28% | Average animal body weight (Day 15, 1 mg/kg): 168 | Average animal body weight percent change (Day 15, 1 mg/kg): 3.24% | Average animal body weight (Day 15, 3 mg/kg): 166 | Average animal body weight percent change (Day 15, 3 mg/kg): 0.37% | Average animal body weight (Day 15, 10 mg/kg): 162 | Average animal body weight percent change (Day 15, 10 mg/kg): 0.13% | Average animal body weight (Day 16, 1 mg/kg): 167 | Average animal body weight percent change (Day 16, 1 mg/kg): 2.62% | Average animal body weight (Day 16, 3 mg/kg): 165 | Average animal body weight percent change (Day 16, 3 mg/kg): −0.37% | Average animal body weight (Day 16, 10 mg/kg): 161 | Average animal body weight percent change (Day 16, 10 mg/kg): −0.57% | Average animal body weight (Day 17, 1 mg/kg): 167 | Average animal body weight percent change (Day 17, 1 mg/kg): 2.48% | Average animal body weight (Day 17, 3 mg/kg): 163 | Average animal body weight percent change (Day 17, 3 mg/kg): −1.43% | Average animal body weight (Day 17, 10 mg/kg): 161 | Average animal body weight percent change (Day 17, 10 mg/kg): −0.47% | Average animal body weight (Day 18, 1 mg/kg): 167 | Average animal body weight percent change (Day 18, 1 mg/kg): 2.38% | Average animal body weight (Day 18, 3 mg/kg): 164 | Average animal body weight percent change (Day 18, 3 mg/kg): −1.11% | Average animal body weight (Day 18, 10 mg/kg): 162 | Average animal body weight percent change (Day 18, 10 mg/kg): −0.29% | Average animal body weight (Day 19, 1 mg/kg): 166 | Average animal body weight percent change (Day 19, 1 mg/kg): 1.46% | Average animal body weight (Day 19, 3 mg/kg): 163 | Average animal body weight percent change (Day 19, 3 mg/kg): −1.74% | Average animal body weight (Day 19, 10 mg/kg): 161 | Average animal body weight percent change (Day 19, 10 mg/kg): −0.70% | Average animal body weight (Day 20, 1 mg/kg): 166 | Average animal body weight percent change (Day 20, 1 mg/kg): 1.92% | Average animal body weight (Day 20, 3 mg/kg): 162 | Average animal body weight percent change (Day 20, 3 mg/kg): −2.24% | Average animal body weight (Day 20, 10 mg/kg): 161 | Average animal body weight percent change (Day 20, 10 mg/kg): −0.54% | Average animal body weight (Day 21, 1 mg/kg): 165 | Average animal body weight percent change (Day 21, 1 mg/kg): 0.93% | Average animal body weight (Day 21, 3 mg/kg): 162 | Average animal body weight percent change (Day 21, 3 mg/kg): −1.78% | Average animal body weight (Day 21, 10 mg/kg): 161 | Average animal body weight percent change (Day 21, 10 mg/kg): −0.75%
